For 14 compounds, selectivity ratio, IC50 and CC50 results are on record in ChEMBL document CHEMBL6121008, “New series of 3-pyridyl-1,3-thiazoles: In vitro and in vivo anti-Trypanosomatidae profile, in vitro and in silico mechanism of action approach” (Eur J Med Chem, 2025).

Data set [1] can be described thus: Selectivity index, ratio of CC50 for mouse RAW264.7 cells to IC50 for antiparasitic activity against Leishmania infantum MHOM/MA/67/ITMAP-263 promastigote expressing Escherichia coli beta-galactosidase. It counts as toxicity. To be noted: read-out: Selectivity Index.
Data set [2] concerns Leishmania amazonensis. Kind of data set: Antiparasitic activity against Leishmania amazonensis amastigote expressing Escherichia coli beta-galactosidase infected in mouse RAW264.7 cells assessed as reduction in parasitic growth using CPRG as substrate preincubated with compound for 24 hrs followed by substrate addition and measured after 2 to 6 hrs by Spectrophotometric analysis. It counts as functional, organism-based.

The nature of data set [3]: Selectivity index, ratio of CC50 for mouse RAW264.7 cells to IC50 for antiparasitic activity against Leishmania infantum amastigote expressing Escherichia coli beta-galactosidase infected in mouse RAW264.7 cells. Format: toxicity. To be noted: read-out: Selectivity Index.
The test system of data set [4] is Leishmania infantum. Kind of data set: Antiparasitic activity against Leishmania infantum amastigote expressing Escherichia coli beta-galactosidase infected in mouse RAW264.7 cells assessed as reduction in parasitic growth using CPRG as substrate preincubated with compound for 24 hrs followed by substrate addition and measured after 2 to 6 hrs by Spectrophotometric analysis. It counts as functional, organism-based.

The test system of data set [5] is Leishmania infantum. Kind of data set: Antiparasitic activity against Leishmania infantum MHOM/MA/67/ITMAP-263 promastigote expressing Escherichia coli beta-galactosidase assessed as reduction in parasitic growth using CPRG as substrate preincubated with compound for 72 hrs followed by substrate addition and measured after 10 mins by Spectrophotometric analysis. Format: functional, organism-based.

A short description of data set [6]: Selectivity index, ratio of CC50 for mouse RAW264.7 cells to IC50 for antiparasitic activity against Leishmania amazonensis amastigote expressing Escherichia coli beta-galactosidase infected in mouse RAW264.7 cells. As to conditions: read-out: Selectivity Index. Format: toxicity.
The nature of data set [7]: Selectivity index, ratio of CC50 for mouse RAW264.7 cells to IC50 for antiparasitic activity against Leishmania amazonensis WHOM/00 LTB 0016 promastigote expressing Escherichia coli beta-galactosidase. Format: toxicity. To be noted: read-out: Selectivity Index.
Data set [8] can be described thus: Cytotoxicity against mouse L929 cells assessed as inhibition of cell viability incubated for 96 hrs by MTT assay. It counts as toxicity, cell-based. (In general: Formazan colour is commonly taken as a measure of viable cells.)
Data set [9] relates to Trypanosoma cruzi. Kind of data set: Antiparasitic activity against amastigote form of Trypanosoma cruzi Tulahuen expressing Escherichia coli beta-galactosidase infected in mouse L929 cells assessed as reduction in parasitic growth using CPRG as substrate pretreated with compound for 96 hrs followed by substrate addition and measured after 16 to 20 hrs by Spectrophotometric analysis. Format: functional, organism-based.

The nature of data set [10]: Cytotoxicity against mouse RAW264.7 cells assessed as inhibition of cell viability incubated for 48 hrs by MTT assay. Format: toxicity, cell-based.
Data set [11] can be described thus: Selectivity index, ratio of CC50 for mouse L929 cells to IC50 for antiparasitic activity against trypomastigote and amastigote form of Trypanosoma cruzi Tulahuen expressing Escherichia coli beta-galactosidase infected in mouse L929 cells. As to conditions: read-out: Selectivity Index. It counts as toxicity.
For data set [12], the system named is Leishmania amazonensis. Kind of data set: Antiparasitic activity against Leishmania amazonensis WHOM/00 LTB 0016 promastigote expressing Escherichia coli beta-galactosidase assessed as reduction in parasitic growth using CPRG as substrate preincubated with compound for 72 hrs followed by substrate addition and measured after 10 mins by Spectrophotometric analysis. Format: functional, organism-based.

In data set [13] the test system is Trypanosoma cruzi. The experiment in a line: Antiparasitic activity against trypomastigote form of Trypanosoma cruzi Tulahuen expressing Escherichia coli beta-galactosidase infected in mouse L929 cells assessed as reduction in parasitic growth using CPRG as substrate pretreated with compound for 96 hrs followed by substrate addition and measured after 16 to 20 hrs by Spectrophotometric analysis. Format: functional, organism-based.

Setting [14] is: Leishmania amazonensis, RAW264.7, read-out: IC50.
[15] abbreviates: Leishmania infantum, RAW264.7, read-out: IC50.
Where [16] appears, read: Leishmania infantum, MHOM/MA/67/ITMAP-263, read-out: IC50.
The mark [17] stands for this setting: Leishmania amazonensis, WHOM/00 LTB 0016, read-out: IC50.

Broadly, the IC50 is the point on the concentration scale where inhibition reaches its midpoint. On to `CCCCCCCCCCCCCCCCOP(=O)([O-])OCC[N+](C)(C)C` [MILTEFOSINE], for which the selectivity ratio was 6.8 in [1], 12.7 in [3], 13.1 in [6] and 6.8 in data set [7]. For the same compound, the IC50 in [2] (setting [14]) was 1.7 µM; in data set [4] (setting [15]) it was 1.7 µM; in data set [5] (setting [16]), 3.2 µM.

What is called CC50 is the concentration that lowers cell viability or growth by half. As to `COc1ccc(-c2cs/c(=N/N=C(\C)c3cccnc3)n2-c2ccccc2)cc1`, the CC50 at 96 h in data set [8] came to 5.2 µM. Also, the concentration for half-maximal inhibition (IC50) in data set [9] was under 0.2 µM; in data set [2] (setting [14]), 6 µM; in [4] (setting [15]), 9.5 µM; in [5] (setting [16]), 16.7 µM; in data set [12] (setting [17]) it was 5.2 µM; in data set [13], under 0.2 µM. Moreover, in data set [10], the CC50 at 48 h is 22 µM. For the same compound, the selectivity ratio in data set [1] was 1.3; in data set [3], 2.3; in [11], over 26; in data set [6] it was 3.7; in data set [7], 4.2.

For `C/C(=N\N=c1\scc(-c2ccc([N+](=O)[O-])cc2)n1-c1ccccc1)c1cccnc1`, the CC50 at 96 h in [8] is 25.8 µM. In addition, the 50% inhibitory concentration (IC50) in [9] was 2.9 µM; in data set [2] (setting [14]) it was 7.7 µM; in data set [4] (setting [15]) it was 9.1 µM; in data set [5] (setting [16]) it was 118 µM; in data set [12] (setting [17]) it was 18.5 µM; in data set [13], 2.9 µM. For the same compound, the CC50 at 48 h in [10] is 22.1 µM. Besides, the selectivity ratio in data set [1] is 0.2; in [3], 2.4; in data set [11] it was 8.9; in [6], 2.9; in [7] it was 1.2.

As for `C/C(=N\NC(N)=S)c1cccnc1`, the CC50 at 48 h in data set [10] came out at 213 µM. Further, the IC50 in data set [2] (setting [14]) was 275 µM; in data set [4] (setting [15]), 163 µM; in data set [5] it was “Not_active”; in data set [12], “Not_active”. Besides, the selectivity ratio came to 1.3 in data set [3] and 0.8 in data set [6].

In the case of `COc1ccc(-c2cs/c(=N/N=C(\C)c3cccnc3)n2C)cc1`, the CC50 at 96 h in data set [8] came to 6.2 µM. Moreover, the IC50 in data set [9] came to 2 µM; in [2] (setting [14]) it was 14.8 µM; in data set [4] (setting [15]), 12.4 µM; in data set [5] (setting [16]) it was 20.1 µM; in [12] (setting [17]), 38.7 µM; in [13], 2 µM. Moreover, the 50% cytotoxic concentration (CC50) at 48 h in [10] is 14.7 µM. Further, the selectivity ratio came to 0.7 in data set [1]; 1.2 in [3]; 3.1 in [11]; 1 in [6]; 0.4 in data set [7].

With `C/C(=N\N=c1\scc(-c2ccc(F)cc2)n1C)c1cccnc1`, the CC50 at 96 h in data set [8] is 15.6 µM. Further, the IC50 in [9] turned out to be 3.7 µM; in data set [2] (setting [14]), 17.4 µM; in data set [4] (setting [15]), 12.5 µM; in data set [5] (setting [16]) it was 21.1 µM; in [12] (setting [17]), 32.7 µM; in data set [13] it was 3.7 µM. Moreover, the CC50 at 48 h in data set [10] turned out to be 15 µM. Further, the selectivity ratio in [1] was determined as 0.7; in [3], 1.2; in [11], 4.2; in [6] it was 0.9; in [7], 0.5.

In the case of `C/C(=N\N=c1\scc(-c2ccc(F)cc2)n1-c1ccccc1)c1cccnc1`, the CC50 at 96 h in data set [8] worked out at 14.4 µM. Besides, the IC50 in data set [9] was found to be 7.5 µM; in data set [2] (setting [14]) it was 6.7 µM; in [4] (setting [15]) it was 10.8 µM; in data set [5] (setting [16]) it was 29.9 µM; in data set [12] (setting [17]) it was 7.2 µM; in data set [13], 7.5 µM. For the same compound, in data set [10], the CC50 at 48 h is 41.2 µM. Also, the selectivity ratio amounted to 1.4 in data set [1]; 3.8 in [3]; 1.9 in data set [11]; 6.1 in [6]; 5.7 in data set [7].

As to `C/C(=N\N=c1\scc(-c2cccc([N+](=O)[O-])c2)n1C)c1cccnc1`, the CC50 at 96 h in data set [8] is 13.3 µM. Moreover, the IC50 is 1 µM in data set [9]; “Not_active” in data set [2] (raw264.7); 33.3 µM in [4] (setting [15]); “Not_active” in data set [5]; “Not_active” in [12]; 1 µM in data set [13]. The CC50 at 48 h in data set [10] stood at 17.5 µM. The selectivity ratio in data set [3] came out at 0.5; in data set [11] it was 13.3.

As to `C/C(=N\N=c1\scc(-c2ccc([N+](=O)[O-])cc2)n1C)c1cccnc1`, in data set [8], the CC50 at 96 h worked out at 88.6 µM. For the same compound, the half-maximal inhibitory concentration (IC50) in data set [9] was 2.5 µM; in [2] (raw264.7) it was “Not_active”; in [4] (raw264.7), “Not_active”; in data set [5] (setting [16]) it was 200 µM; in data set [12] (setting [17]) it was 168 µM; in data set [13], 2.5 µM. In data set [10], the cytotoxic concentration (CC50) at 48 h was 41.2 µM. Further, the selectivity ratio in [1] worked out at 0.2; in data set [11], 35.4; in data set [7] it was 0.2.

In the case of `C/C(=N\NC(=S)Nc1ccccc1)c1cccnc1`, the selectivity ratio came to 4.4 in [1], 4.5 in [3] and 13.7 in data set [7]. Also, the concentration for half-maximal inhibition (IC50) in [4] (setting [15]) worked out at 21.1 µM; in data set [5] (setting [16]), 21.8 µM; in [12] (setting [17]) it was 7 µM.

With `C/C(=N\N=c1/[nH]c(-c2ccc(F)cc2)cs1)c1cccnc1`, the CC50 at 96 h in [8] is over 320 µM. Further, the IC50 in data set [9] was 3.8 µM; in data set [2] (setting [14]) it was 44.7 µM; in data set [4] (raw264.7) it was “Not_active”; in data set [5] it was “Not_active”; in data set [12] it was “Not_active”; in [13], 3.8 µM. Further, the CC50 at 48 h in data set [10] turned out to be 52.3 µM. Further, the selectivity ratio in data set [11] is over 84.2; in data set [6], 0.6.

Consider `C/C(=N\N=c1/[nH]c(-c2ccc([N+](=O)[O-])cc2)cs1)c1cccnc1`, for which the CC50 at 96 h in data set [8] was over 295 µM. Further, the IC50 in data set [9] was 59.4 µM; in data set [2] (setting [14]), 295 µM; in data set [4] (setting [15]), 45.6 µM; in [5] it was “Not_active”; in data set [12], “Not_active”; in [13] it was 59.4 µM. Further, in [10], the CC50 at 48 h came out at 63.6 µM. Besides, the selectivity ratio is 1.4 in data set [3], over 5 in data set [11] and 0.2 in data set [6].

Turning to `CNC(=S)N/N=C(\C)c1cccnc1`, the half-maximal cytotoxic concentration (CC50) at 48 h in data set [10] stood at 148 µM. Further, the IC50 in data set [2] (setting [14]) is 183 µM; in [4] (raw264.7), “Not_active”; in data set [5], “Not_active”; in data set [12] (setting [17]) it was 339 µM. The values for the selectivity ratio in data set [6] and in data set [7] were 0.8 and 0.4, respectively.

With `C[C@@H]1[C@H](O)[C@@H](C)/C=C/C=C/C=C/C=C/C=C/C=C/C=C/[C@H](O[C@@H]2O[C@H](C)[C@@H](O)[C@H](N)[C@@H]2O)C[C@@H]2O[C@](O)(C[C@@H](O)C[C@@H](O)[C@H](O)CC[C@@H](O)C[C@@H](O)CC(=O)O[C@H]1C)C[C@H](O)[C@H]2C(=O)O` [AMPHOTERICIN B], the CC50 at 48 h in [10] stood at 3.5 µM. The selectivity ratio in [1] is 17.5; in data set [3], 58.3; in data set [6] it was 87.5; in data set [7], 35. Moreover, the IC50 in data set [2] (setting [14]) was 0.04 µM; in data set [4] (setting [15]) it was 0.06 µM; in data set [5] (setting [16]) it was 0.2 µM; in [12] (setting [17]), 0.1 µM.
